Test results taken from patent publication US20100137449A1, “SUBSTITUTED 1,3-CYCLOPENTADIONE MULTI-TARGET PROTEIN KINASE MODULATORS OF CANCER, ANGIOGENESIS AND THE INFLAMMATORY PATHWAYS ASSOCIATED THEREWITH” (METAPROTEOMICS, LLC, priority 2007, published 2010).

Experiments:
Experiment in all cases: KinaseProfiler Assay
[1] = molecular target: T1, BrSK2(h) (Homo sapiens, UniProt Q8IWQ3)
T1 sequence (Q8IWQ3 1-736): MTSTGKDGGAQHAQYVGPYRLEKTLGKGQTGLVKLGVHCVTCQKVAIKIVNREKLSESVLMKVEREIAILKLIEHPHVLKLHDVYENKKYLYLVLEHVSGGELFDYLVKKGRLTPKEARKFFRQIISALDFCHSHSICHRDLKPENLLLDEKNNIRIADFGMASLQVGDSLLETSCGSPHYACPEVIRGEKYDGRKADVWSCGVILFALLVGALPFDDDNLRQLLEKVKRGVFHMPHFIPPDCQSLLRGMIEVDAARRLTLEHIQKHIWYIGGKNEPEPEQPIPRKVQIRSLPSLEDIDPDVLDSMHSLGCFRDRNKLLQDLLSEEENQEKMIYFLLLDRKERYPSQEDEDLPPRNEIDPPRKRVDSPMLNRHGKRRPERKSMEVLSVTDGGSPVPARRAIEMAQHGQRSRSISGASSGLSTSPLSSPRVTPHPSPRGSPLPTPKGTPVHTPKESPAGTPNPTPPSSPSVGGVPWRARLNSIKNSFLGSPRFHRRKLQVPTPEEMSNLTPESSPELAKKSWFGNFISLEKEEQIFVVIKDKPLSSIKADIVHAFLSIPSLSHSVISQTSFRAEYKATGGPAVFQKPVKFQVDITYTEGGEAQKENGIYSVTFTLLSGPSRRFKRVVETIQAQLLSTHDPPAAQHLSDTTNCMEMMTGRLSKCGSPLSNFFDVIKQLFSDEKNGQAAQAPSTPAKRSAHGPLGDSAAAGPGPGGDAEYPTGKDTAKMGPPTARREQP

[2] = molecular target: MLCK(h)
[3] = molecular target: CHK2(I157T)(h) (Homo sapiens, UniProt O96017, I157T)
Chain of CHK2(I157T)(h) (O96017 whole entry I157T): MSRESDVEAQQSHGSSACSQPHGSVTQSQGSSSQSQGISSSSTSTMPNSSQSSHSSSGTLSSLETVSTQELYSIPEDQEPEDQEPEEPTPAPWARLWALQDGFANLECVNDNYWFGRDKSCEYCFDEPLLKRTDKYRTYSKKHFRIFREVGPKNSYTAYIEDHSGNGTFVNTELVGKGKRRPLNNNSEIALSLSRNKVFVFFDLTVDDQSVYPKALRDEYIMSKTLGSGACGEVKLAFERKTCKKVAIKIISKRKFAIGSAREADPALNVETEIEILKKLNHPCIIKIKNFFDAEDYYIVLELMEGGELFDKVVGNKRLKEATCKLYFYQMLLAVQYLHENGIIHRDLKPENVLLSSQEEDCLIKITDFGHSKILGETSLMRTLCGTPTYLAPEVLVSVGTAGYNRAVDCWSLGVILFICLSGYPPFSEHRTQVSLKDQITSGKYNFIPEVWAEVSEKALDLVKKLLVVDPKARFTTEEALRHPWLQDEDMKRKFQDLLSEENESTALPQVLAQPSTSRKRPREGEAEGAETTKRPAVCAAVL

[4] = molecular target: CDK2/cyclinE(h) (Homo sapiens, UniProt P24941)
[5] = molecular target: PAK6(h) (Homo sapiens, UniProt Q9NQU5)
Chain of PAK6(h) (Q9NQU5 whole entry): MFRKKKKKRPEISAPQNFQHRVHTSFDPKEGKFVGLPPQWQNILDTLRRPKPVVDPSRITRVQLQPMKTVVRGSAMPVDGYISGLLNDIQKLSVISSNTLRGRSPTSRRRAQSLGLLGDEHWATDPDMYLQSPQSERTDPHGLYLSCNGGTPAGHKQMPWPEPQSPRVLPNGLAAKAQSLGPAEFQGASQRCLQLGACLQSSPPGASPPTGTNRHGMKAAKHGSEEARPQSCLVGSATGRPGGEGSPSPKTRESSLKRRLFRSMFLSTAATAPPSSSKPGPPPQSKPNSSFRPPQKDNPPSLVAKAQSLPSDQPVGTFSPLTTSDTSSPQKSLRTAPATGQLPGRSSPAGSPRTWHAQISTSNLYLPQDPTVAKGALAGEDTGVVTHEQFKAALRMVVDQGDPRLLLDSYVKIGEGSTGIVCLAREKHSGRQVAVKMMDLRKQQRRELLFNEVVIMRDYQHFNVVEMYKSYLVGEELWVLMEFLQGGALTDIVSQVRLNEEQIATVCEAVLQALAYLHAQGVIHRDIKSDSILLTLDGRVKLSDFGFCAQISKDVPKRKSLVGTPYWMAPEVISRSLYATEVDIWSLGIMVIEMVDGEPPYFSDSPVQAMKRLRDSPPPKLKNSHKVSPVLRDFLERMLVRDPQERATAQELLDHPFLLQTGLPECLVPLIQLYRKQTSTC

[6] = molecular target: WNK3(h) (Homo sapiens, UniProt Q9BYP7)
[7] = molecular target: Pim-1(h) (Homo sapiens, UniProt P11309)
Chain of Pim-1(h) (P11309 whole entry): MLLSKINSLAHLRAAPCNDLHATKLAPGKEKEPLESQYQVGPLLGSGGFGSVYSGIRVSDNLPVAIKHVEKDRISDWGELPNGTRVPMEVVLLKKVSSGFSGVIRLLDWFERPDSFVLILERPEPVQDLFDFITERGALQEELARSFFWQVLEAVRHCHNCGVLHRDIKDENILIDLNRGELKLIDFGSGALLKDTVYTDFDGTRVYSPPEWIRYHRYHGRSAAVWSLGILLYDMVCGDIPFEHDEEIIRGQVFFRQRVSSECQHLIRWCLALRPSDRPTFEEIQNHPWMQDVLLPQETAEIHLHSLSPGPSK

[8] = molecular target: cKit(V560G)(h) (Homo sapiens, UniProt P10721, V560G)
Chain of cKit(V560G)(h) (P10721 26-976 V560G): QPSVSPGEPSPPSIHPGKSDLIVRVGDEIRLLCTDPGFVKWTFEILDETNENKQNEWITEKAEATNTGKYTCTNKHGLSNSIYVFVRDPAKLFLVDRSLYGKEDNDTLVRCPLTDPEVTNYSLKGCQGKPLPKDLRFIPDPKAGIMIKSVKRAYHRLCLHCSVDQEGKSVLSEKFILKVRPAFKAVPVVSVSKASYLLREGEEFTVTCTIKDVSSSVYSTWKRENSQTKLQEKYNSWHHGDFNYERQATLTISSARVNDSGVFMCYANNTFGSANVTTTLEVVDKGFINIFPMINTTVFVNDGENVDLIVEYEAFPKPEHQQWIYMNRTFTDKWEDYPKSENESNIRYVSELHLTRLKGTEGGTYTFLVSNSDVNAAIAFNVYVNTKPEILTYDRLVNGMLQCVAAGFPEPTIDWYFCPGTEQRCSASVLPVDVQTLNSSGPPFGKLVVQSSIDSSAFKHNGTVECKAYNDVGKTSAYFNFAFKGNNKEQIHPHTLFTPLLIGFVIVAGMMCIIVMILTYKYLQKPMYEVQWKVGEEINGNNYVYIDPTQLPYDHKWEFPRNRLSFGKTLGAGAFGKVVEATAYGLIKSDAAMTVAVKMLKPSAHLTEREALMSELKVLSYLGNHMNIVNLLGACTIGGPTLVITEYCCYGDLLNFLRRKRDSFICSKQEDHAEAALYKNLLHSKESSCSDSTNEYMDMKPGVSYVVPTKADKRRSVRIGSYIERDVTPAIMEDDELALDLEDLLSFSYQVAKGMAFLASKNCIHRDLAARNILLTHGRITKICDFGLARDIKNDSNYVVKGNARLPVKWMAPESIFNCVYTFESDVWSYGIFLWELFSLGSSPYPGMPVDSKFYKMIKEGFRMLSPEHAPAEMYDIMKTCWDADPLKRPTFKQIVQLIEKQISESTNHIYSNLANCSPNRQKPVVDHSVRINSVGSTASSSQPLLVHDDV

[9] = molecular target: PASK(h) (Homo sapiens, UniProt Q96RG2)
Chain of PASK(h) (Q96RG2 whole entry): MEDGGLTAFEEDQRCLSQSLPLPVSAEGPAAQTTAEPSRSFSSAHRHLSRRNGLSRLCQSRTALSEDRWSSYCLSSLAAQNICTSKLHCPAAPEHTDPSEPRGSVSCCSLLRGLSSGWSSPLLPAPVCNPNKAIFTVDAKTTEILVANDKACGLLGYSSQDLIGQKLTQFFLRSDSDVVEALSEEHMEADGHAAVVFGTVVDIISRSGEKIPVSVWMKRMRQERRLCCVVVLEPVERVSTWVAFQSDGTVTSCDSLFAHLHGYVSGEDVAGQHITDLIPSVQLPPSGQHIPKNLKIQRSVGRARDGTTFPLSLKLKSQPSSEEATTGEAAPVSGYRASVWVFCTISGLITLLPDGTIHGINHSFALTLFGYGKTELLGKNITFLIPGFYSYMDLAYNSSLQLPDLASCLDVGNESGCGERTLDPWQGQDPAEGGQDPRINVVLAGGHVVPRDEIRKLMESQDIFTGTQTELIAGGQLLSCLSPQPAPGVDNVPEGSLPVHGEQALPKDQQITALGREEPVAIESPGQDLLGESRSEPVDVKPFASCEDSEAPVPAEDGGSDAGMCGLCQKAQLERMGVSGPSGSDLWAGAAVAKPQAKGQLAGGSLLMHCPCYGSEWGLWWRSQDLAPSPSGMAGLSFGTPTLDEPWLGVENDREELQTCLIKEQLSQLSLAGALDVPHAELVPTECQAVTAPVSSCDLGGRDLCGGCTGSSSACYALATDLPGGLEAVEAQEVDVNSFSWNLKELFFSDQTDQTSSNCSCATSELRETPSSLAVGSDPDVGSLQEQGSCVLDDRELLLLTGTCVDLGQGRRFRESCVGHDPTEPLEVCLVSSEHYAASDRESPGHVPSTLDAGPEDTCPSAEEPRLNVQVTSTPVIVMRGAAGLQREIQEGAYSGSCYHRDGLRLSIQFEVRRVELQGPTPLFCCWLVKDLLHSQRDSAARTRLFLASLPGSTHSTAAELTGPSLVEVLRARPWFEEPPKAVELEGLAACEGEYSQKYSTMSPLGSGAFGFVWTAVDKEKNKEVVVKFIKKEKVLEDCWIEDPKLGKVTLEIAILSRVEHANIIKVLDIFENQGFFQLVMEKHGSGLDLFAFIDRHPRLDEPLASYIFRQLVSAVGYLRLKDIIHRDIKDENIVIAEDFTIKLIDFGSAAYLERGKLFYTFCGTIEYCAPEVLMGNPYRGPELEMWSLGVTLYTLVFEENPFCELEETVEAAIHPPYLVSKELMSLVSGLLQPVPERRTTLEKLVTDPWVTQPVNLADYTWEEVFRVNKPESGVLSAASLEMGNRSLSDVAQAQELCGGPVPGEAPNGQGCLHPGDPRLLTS

[10] = molecular target: CaMKII(r)
[11] = molecular target: PKCβI(h) (Homo sapiens, UniProt P05771)
Chain of PKCβI(h) (P05771 whole entry): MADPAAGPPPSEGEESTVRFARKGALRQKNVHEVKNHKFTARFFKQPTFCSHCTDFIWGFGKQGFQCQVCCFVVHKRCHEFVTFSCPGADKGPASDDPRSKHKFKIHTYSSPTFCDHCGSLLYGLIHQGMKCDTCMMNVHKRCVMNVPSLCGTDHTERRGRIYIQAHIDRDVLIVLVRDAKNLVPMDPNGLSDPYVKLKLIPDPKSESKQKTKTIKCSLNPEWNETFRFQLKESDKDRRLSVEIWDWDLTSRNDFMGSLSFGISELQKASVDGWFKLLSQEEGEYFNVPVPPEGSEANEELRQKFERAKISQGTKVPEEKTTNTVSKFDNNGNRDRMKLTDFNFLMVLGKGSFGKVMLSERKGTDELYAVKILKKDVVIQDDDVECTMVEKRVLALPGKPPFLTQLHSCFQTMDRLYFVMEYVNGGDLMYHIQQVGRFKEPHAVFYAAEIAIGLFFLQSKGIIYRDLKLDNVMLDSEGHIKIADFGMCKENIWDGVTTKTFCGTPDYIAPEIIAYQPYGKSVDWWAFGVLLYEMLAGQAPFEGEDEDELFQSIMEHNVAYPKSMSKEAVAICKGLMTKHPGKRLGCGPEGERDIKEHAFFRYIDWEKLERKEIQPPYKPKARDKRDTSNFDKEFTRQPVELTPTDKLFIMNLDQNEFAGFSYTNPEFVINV

[12] = molecular target: T2, CaMKIV(h) (Homo sapiens, UniProt Q16566)
T2 sequence (Q16566 1-473): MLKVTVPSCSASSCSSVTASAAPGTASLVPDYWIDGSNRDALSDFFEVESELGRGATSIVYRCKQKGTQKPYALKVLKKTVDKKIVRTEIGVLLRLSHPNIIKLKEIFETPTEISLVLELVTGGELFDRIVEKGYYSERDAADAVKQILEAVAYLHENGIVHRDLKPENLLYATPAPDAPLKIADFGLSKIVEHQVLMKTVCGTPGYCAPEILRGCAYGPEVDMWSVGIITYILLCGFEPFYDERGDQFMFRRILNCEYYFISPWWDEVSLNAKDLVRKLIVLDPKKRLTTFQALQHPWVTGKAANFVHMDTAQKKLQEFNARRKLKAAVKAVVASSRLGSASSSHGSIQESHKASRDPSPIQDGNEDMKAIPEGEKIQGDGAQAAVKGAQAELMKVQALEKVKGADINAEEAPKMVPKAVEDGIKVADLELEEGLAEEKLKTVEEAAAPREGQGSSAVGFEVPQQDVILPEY

## CC(C)CCC(=O)[C@]1(O)C(O)=C(C(=O)C(C)C)C(=O)[C@H]1CCC(C)C [TH2, tetrahydroiso-cohumulone]
[1]; 1 μg/ml
  kinase inhibition: 99% of control
[1]; 5 μg/ml
  kinase inhibition: 90% of control
[1]; 25 μg/ml
  kinase inhibition: 84% of control
[1]; 50 μg/ml
  kinase inhibition: 83% of control
[1]; 100 μg/ml
  kinase inhibition: 72% of control
[2]; 1 μg/ml
  kinase inhibition: 98% of control
[2]; 5 μg/ml
  kinase inhibition: 96% of control
[2]; 25 μg/ml
  kinase inhibition: 105% of control
[2]; 50 μg/ml
  kinase inhibition: 93% of control
[2]; 100 μg/ml
  kinase inhibition: 86% of control
[3]; 1 μg/ml
  kinase inhibition: 108% of control
[3]; 5 μg/ml
  kinase inhibition: 104% of control
[3]; 25 μg/ml
  kinase inhibition: 94% of control
[3]; 50 μg/ml
  kinase inhibition: 83% of control
[3]; 100 μg/ml
  kinase inhibition: 74% of control
[4]; 1 μg/ml
  kinase inhibition: 95% of control
[4]; 5 μg/ml
  kinase inhibition: 101% of control
[4]; 25 μg/ml
  kinase inhibition: 93% of control
[4]; 50 μg/ml
  kinase inhibition: 71% of control
[4]; 100 μg/ml
  kinase inhibition: 54% of control
[5]; 1 μg/ml
  kinase inhibition: 85% of control
[5]; 5 μg/ml
  kinase inhibition: 113% of control
[5]; 25 μg/ml
  kinase inhibition: 90% of control
[5]; 50 μg/ml
  kinase inhibition: 89% of control
[5]; 100 μg/ml
  kinase inhibition: 42% of control
[6]; 1 μg/ml
  kinase inhibition: 111% of control
[6]; 5 μg/ml
  kinase inhibition: 113% of control
[6]; 25 μg/ml
  kinase inhibition: 109% of control
[6]; 50 μg/ml
  kinase inhibition: 113% of control
[6]; 100 μg/ml
  kinase inhibition: 111% of control
[7]; 1 μg/ml
  kinase inhibition: 86% of control
[7]; 5 μg/ml
  kinase inhibition: 100% of control
[7]; 25 μg/ml
  kinase inhibition: 87% of control
[7]; 50 μg/ml
  kinase inhibition: 84% of control
[7]; 100 μg/ml
  kinase inhibition: 55% of control
[8]; 1 μg/ml
  kinase inhibition: 112% of control
[8]; 5 μg/ml
  kinase inhibition: 114% of control
[8]; 25 μg/ml
  kinase inhibition: 105% of control
[8]; 50 μg/ml
  kinase inhibition: 90% of control
[8]; 100 μg/ml
  kinase inhibition: 78% of control
[9]; 1 μg/ml
  kinase inhibition: 71% of control
[9]; 5 μg/ml
  kinase inhibition: 76% of control
[9]; 25 μg/ml
  kinase inhibition: 78% of control
[9]; 50 μg/ml
  kinase inhibition: 80% of control
[9]; 100 μg/ml
  kinase inhibition: 71% of control
[10]; 1 μg/ml
  kinase inhibition: 105% of control
[10]; 5 μg/ml
  kinase inhibition: 106% of control
[10]; 25 μg/ml
  kinase inhibition: 105% of control
[10]; 50 μg/ml
  kinase inhibition: 91% of control
[10]; 100 μg/ml
  kinase inhibition: 63% of control
[11]; 1 μg/ml
  kinase inhibition: 105% of control
[11]; 5 μg/ml
  kinase inhibition: 110% of control
[11]; 25 μg/ml
  kinase inhibition: 93% of control
[11]; 50 μg/ml
  kinase inhibition: 95% of control
[11]; 100 μg/ml
  kinase inhibition: 92% of control
[12]; 1 μg/ml
  kinase inhibition: 117% of control
[12]; 5 μg/ml
  kinase inhibition: 126% of control
[12]; 25 μg/ml
  kinase inhibition: 86% of control
[12]; 50 μg/ml
  kinase inhibition: 69% of control
[12]; 100 μg/ml
  kinase inhibition: 52% of control
